Test system: human T cells in PBMC-engrafted NSG mice
Assay: In vivo reprogramming of immune cells with DiI LNP expressing GFP in PBMC-humanized NSG mice
Set-up: species or system mouse
Conditions: 24 h
Description: The NSG (NOD.Cg-Prkdcscid Il2rgtmlWjl/SzJ) mouse model was purchased from Jax Laboratories. 6-8 weeks old male mice were engrafted with 10 million PBMC of qualified donor in sterile PBS by tail vein injection. Individual body weight was monitored twice a week and blood samples were collected at appropriate interval to evaluate human immune cells engraftment.
50 μl blood was collected by tail vein bleed from each mouse. Red blood cells were lysed using Versalyse, RBC lysis solution following protocol as instructed by manufacturer (Beckman Coulter A09777). Cells were stained with hCD45 & hCD3 to determine the engraftment of human T-cells. After 15 days of PBMC injection, mice had anywhere from 30-60% huCD45+. These humanized mice were evaluated for reprogramming of immune cells by LNPs expressing DiI dye and GFP.
At time zero, mice (n=4 per group) were injected with GFP expressing DiI LNPs (by i. v. at 0.3 mg/kg or 0.1 mg/kg with appropriate buffer. At each time point, 24 or 48h depending on the example mice treated with either LNPs or buffer were sacrificed. Terminal blood and tissues collection was performed to determine DiI and GFP expression in different organs and immune cells as below.
At above specified timepoints, mice were anesthetized with CO2 before sample collection. For blood collection, the chest was opened to expose the heart. […]

For `CCCCC/C=C\C/C=C\CCCCCCCC(=O)OC[C@H](CCN(C)C)OC(=O)CCCCCCC/C=C\C/C=C\CCCCC` [Lipid 5], which “GFP expression of T cells in blood and lung” value (0.1 mg/kg, CD3 (hsp34) targeted LNP, DPG-PEG-1.5%) is on record?
The value was “about 25%”.

What about the “in vivo reprogramming (GFP, DiI) of T cells, in words” value (0.3 mg/kg (0.1 mg/kg in Example 30)) of the same molecule?
Its value is “superior for reprogramming T cells”.

Reference: patent US20220218614A1, “IONIZABLE CATIONIC LIPIDS AND LIPID NANOPARTICLES, AND METHODS OF SYNTHESIS AND USE THEREOF” (Tidal Therapeutics, Inc., priority 2020, published 2022)
